Measured values published in PMC4115230, “Lipid–Protein Nanodiscs Offer New Perspectives for Structural and Functional Studies of Water-Soluble Membrane-Active Peptides” (Acta Naturae, 2014).
“Also recorded” adds a separate entry of the source. Where no end group is shown, it is not given here.

Key:
[1] = ref [12], [15], [20]; cited from earlier work
Text: (§1) Given that the mechanisms associated with the change in the local curvature of the lipid bilayer (“toroidal” pore formation, bilayer micellization) underlie the action of the overwhelming majority of water- soluble cationic AMPs, we can assume that many of these molecules will have a destructive effect on LPNs. Thus, nanodiscs are probably not suited as a medium for studying these peptides. It should be noted that there are other classes of channel- and pore-forming biomolecules that can be studied in LPN-based media.

[2] = system: LPNs; details: ref [12], [15], [20]; cited from earlier work
Text: as §1

[3] = system: LPN/POPC; assay: NMR titration binding isotherm with LPN/POPC nanodiscs
Protocol: (§2) The recombinant 44–243 fragment of the human apolipoprotein A1 with a N-terminal sequence of six His residues was used as an MSP protein. The purified MSP protein, obtained as described in [20], was mixed at a molar ratio of 1 : 75 with lipids in the presence of a detergent, sodium cholate (2 : 1 cholate/lipids molar ratio), and the mixture was incubated at 4 °C for 3 h. When using saturated lipids (DLPC, DLPG), the reaction temperature was kept not lower than 25 °C. Spontaneous LPN assembly was initiated by detergent sorption to the Bio-Beads™ resin (Bio-Rad, USA) for 1.5 h. Purification of the nanodiscs was performed on a Ni^2+ Sepharose 6 Fast Flow resin (GE Healthcare, USA) equilibrated with buffer A (20 mM Tris-HCl, 0.5 M NaCl, 1 mM NaN3, pH 8.0). After loading the reaction mixture, the resin was washed with a fivefold volume of buffer A. LPNs were eluted with buffer A containing 100 mM imidazole. The MSP concentration was determined spectrophotometrically by absorbance at λ = 280 nm. The LPN concentration was determined by assuming that each nanodisc contained two MSP molecules.
(§3) NMR spectra were acquired at 40–45 °C on AVANCE -700 and AVANCE -III-800 spectrometers (Bruker, Germany) equipped with cryogenically cooled triple-resonance probes at the proton resonance frequencies of 700 and 800 MHz, respectively.
(§4) To measure the isotherms of the toxins binding to LPNs and MSP molecules, the VSTx1 and NT II samples ([…], 10 mM Tris-Ac, pH 7.0) were titrated with solutions of nanodiscs (70 μM) of various lipid compositions or with a MSP solution (0.7 mM). The 1D 1H-NMR spectrum was acquired at each point. A data analysis was performed assuming that the intensity of the observed NMR signals of a peptide is proportional to its equilibrium concentration in solution ([P]free). The binding curves were fitted either to the partition equilibrium equation (1) or to the Langmuir isotherm equation (2), taking into account the dilution of the initial samples upon titration:
(§5) where [LPN/lipid] is the LPN concentration (assuming that one nanodisc contains two MSP molecules) or the lipid concentration (assuming that one nanodisc contains 150 lipid molecules), [P]boundis the concentration of a peptide bound to LPN ([P]0 = [P]free+ [P]bound), Kpis the partition coefficient, n is the number of binding sites for a peptide on the nanodisc surface, and Knis the affinity constant of the peptide to the binding site on the nanodisc surface.

[4] = system: LPN/POPC/DOPG (3 : 1); assay: NMR titration binding isotherm with LPN/POPC/DOPG (3 : 1) nanodiscs
Protocol: as §2, §3, §4, §5

[5] = system: MSP (44-243 fragment of human apolipoprotein A1); assay: NMR titration binding isotherm with MSP
Protocol: as §2, §3, §4, §5

[6] = system: LPNs; assay: Gel filtration analysis of LPNs after peptide addition (nanodisc integrity, particle size); type: physicochemical; details: for nanodisc disruption: 1 mM EDTA, pH 7.4, 280 nm
Protocol: was carried out on a Superdex-200 resin using a Tricorn 5/200 column (GE Healthcare, Sweden) in buffer (10 mM Tris-HCl, 0.1 M NaCl, 1 mM EDTA, 1 mM NaN3, pH 7.4). Thyroglobulin (669 kDa, Stokes radius RH = 8.5 nm), ferritin (440 kDa, RH = 6.1 nm), catalase (232 kDa, RH = 5.22 nm), aldolase (158 kDa, RH = 4.81 nm) BSA (67 kDa, RH = 3.55 nm), and ovalbumin (43 kDa, RH = 3.05 nm) were used as calibration proteins. The flow rate through the column was 0.3 ml/min. Detection was performed at 280 nm. The particle size was determined from the elution volume vs the lgRH calibration curve. All the particle size (diameter) values provided below correspond to twice RH values. ;

[7] = system: nanodisc surface or MSP molecule; assay: Langmuir analysis of VSTx1 binding to sites on nanodisc surface or MSP; details: Langmuir isotherm (eq. 2); range over LPN/POPC, LPN/POPC/DOPG and MSP
Protocol: as §4, §5

[8] = buffer containing 150 mM KCl; ref [3]; cited from earlier work
Text: These differences in the toxin affinity may b ...

[9] = ref [31]; cited from earlier work
Text: (§6) The VSTx1 toxin is a small β-structured peptide stabilized by three disulfide bonds which form a “cysteine knot” (Fig. 1). […] According to current data, VSTx1 inhibits the voltage-dependent activation of K^+ channels and uses “membrane catalysis” mechanisms when forming a complex with the voltage-sensing domain of the channel.

[10] = system: K^+ channels; details: ref [3]; cited from earlier work
Text: as §6

[11] = system: LPNs; assay: Opalescence/opacity of LPN solutions on Ar2 addition; type: physicochemical
Protocol: During that study, an aqueous Ar2 solution was added to nanodisc samples. […] An analysis of the sample supernatants by gel filtration confirmed this assumption. […] A similar process is known as high-density lipoprotein remodeling, which can occur both in vitro and in vivo upon the interaction of lipoprotein particles with lipophilic plasma proteins. Previously, nanodisc fusion had been observed in cell-free protein biosynthesis systems with the cotranslational incorporation of membrane proteins into LPNs containing unsaturated lipids. The spontaneous LPN fusion in vitro proceeds very slowly, but it could be considerably accelerated under denaturing conditions.

[12] = Mean Kyte-Doolittle hydrophobicity index; details: among the three studied peptides
Text: The problems related to the application of LPNbased membrane mimetic media in structural and biophysical studies of water-soluble MPs have yet to be studied. It should be noted that this is far from being a trivial matter, since LPNs, unlike vesicles, bicelles, and micelles, contain an additional component, MSP, which is an anionic protein (charge of –6). In this paper, the interaction of water-soluble MPs with LPNs was studied using three model cationic β-structured peptides (Fig. 1), which have different physicochemical properties and represent three classes of membrane-active compounds. The antimicrobial peptide arenicin-2 (Ar2, 21 AA, 2772 Da, charge of +6, mean Kyte-Doolittle hydrophobicity index is –0.06, The maximum and minimum values of the Kyte-Doolittle hydrophobicity index are +4.5 and –4.5 for poly-Ile and poly-Arg sequences, respectively.) from coelomocytes of the polychaete lugworm Arenicola marina interacts selectively with membranes containing negatively charged lipid molecules and forms oligomeric pores in them. The VSTx1 toxin (34 AA, 4010 Da, charge of +3, hydrophobicity index is –0.27) from Grammostola spatulata spider venom uses the “membrane catalysis” mechanism to interact with the voltage-sensitive domains of K+-channels localized in the cell membrane, and it lacks pore-forming ability. […]

[13] = CD spectroscopy; ref [18], [21]; cited from earlier work
[14] = CD spectroscopy; ref [18], [21]; cited from earlier work; remark: listed apart in the source
[15] = cited from earlier work
Text: The cationic AMP, Ar2, contains mainly positively charged and hydrophobic residues and has a β-hairpin structure in water, which is stabilized with one disulfide bond (Fig. 1). […] As expected, the β-hairpins of individual peptides within the pore have a transmembrane orientation, so that the ...

[16] = Langmuir isotherm (eq. 2), 10 mM Tris-Ac, pH 7.0, 40–45 °C
[17] = maximum ("up to"), Langmuir isotherm
[18] = partition equilibrium (eq. 1), lipid concentration as non-aqueous phase (150 lipids per nanodisc), 10 mM Tris-Ac, pH 7.0, 40–45 °C, no added salt
[19] = Superdex-200, 10 mM Tris-HCl, 0.1 M NaCl

## antiamoebin I
[1]
  upper limit of solubility in water: 30 µM
[2]
  complex formation with LPNs: formation of stable complexes

## VSTx1 (GSECGKFMWKCKNSNDCCKDLVCSSRWKWCVLASPF; not fully specified; ends and bridges not checked)
[3]; [16]
  Kn, affinity constant of the peptide to the binding site on the LPN surface: 0.06 ± 0.01 ×10^6·M^-1
  n, number of binding sites on the LPN surface: 9.6 ± 1.5
[3]; POPC, 1D 1H-NMR titration, 10 mM Tris-Ac, pH 7.0
  binding to LPNs: lower affinity; also recorded: interacts less efficiently
[3]; [17]
  toxin molecules bound per nanodisc containing POPC (~ 150 molecules): ~ 10 toxin molecules
[3]; partition equilibrium (eq. 1), LPN concentration as non-aqueous phase, 1D 1H-NMR titration, 10 mM Tris-Ac, pH 7.0, 40–45 °C, no added salt
  Kp(LPN, MSP×2), partition coefficient: 0.39 ± 0.02 ×10^6·M^-1
[3]; [18]
  Kp(Lipids), partition coefficient: 2.6 ± 0.2 ×10^3·M^-1
[4]; [16]
  Kn, affinity constant of the peptide to the binding site on the LPN surface: 0.13 ± 0.02 ×10^6·M^-1
  n, number of binding sites on the LPN surface: 34.5 ± 3.9
[4]; POPC/DOPG, 3 : 1, 1D 1H-NMR titration, 10 mM Tris-Ac, pH 7.0
  binding to LPNs: effectively binds; also recorded: interacts effectively with LPNs containing anionic lipids
[4]; at ~ 35 binding sites per nanodisc
  lipid molecules per toxin molecule: ~ 4 lipid molecules per toxin molecule
[4]; [17]
  number of binding sites with negatively charged lipids added: ~ 35
[4]; partition equilibrium (eq. 1), LPN concentration as non-aqueous phase, 10 mM Tris-Ac, pH 7.0, 40–45 °C, no added salt
  Kp(LPN, MSP×2), partition coefficient: 2.68 ± 0.24 ×10^6·M^-1
[4]; [18]
  Kp(Lipids), partition coefficient: 17.8 ± 1.6 ×10^3·M^-1
[5]; MSP without lipids, 1D 1H-NMR titration, 10 mM Tris-Ac, pH 7.0
  interaction with MSP: weakly interacts; also recorded: weak interaction
[5]; MSP×2, no lipids, Langmuir isotherm (eq. 2), 10 mM Tris-Ac, pH 7.0, 40–45 °C
  Kn, affinity constant of the peptide to the binding site: 0.05 ± 0.02 ×10^6·M^-1
[5]; MSP×2, no lipids, partition equilibrium (eq. 1), titration with 0.7 mM MSP, 10 mM Tris-Ac, pH 7.0, 40–45 °C
  Kp(LPN, MSP×2), partition coefficient: 0.10 ± 0.01 ×10^6·M^-1
[5]; in the absence of lipids, each MSP molecule
  VSTx1 molecules bound per MSP molecule: up to 1.6 VSTx1 molecules
[6]; [19]
  nanodisc disruption: does not cause their disruption; also recorded: no nanodisc disruption
[6]; Superdex-200, 10 mM Tris-HCl, 0.1 M NaCl, pH 7.4, diameter = 2 RH
  diameter of unbound toxin: ~ 2.0 nm
[7]
  Kn, affinity to the sites on the nanodisc surface or on a MSP molecule: 50000 to 130000 M⁻¹
[8]
  Kp, partition coefficient, vesicles of POPE/POPG (3 : 1): ~ 2 × 10^3 × 10^3 M^-1
[9]
  affinity for interface of phospholipid membranes containing anionic lipids: considerable affinity
  interaction with zwitterionic lipid membranes: weakly interacts
  membrane lytic activity: no membrane lytic activity
[10]
  voltage-dependent activation of K^+ channels: inhibits

## arenicin-2 (RWCVYAYVRIRGVLVRYRRCW; not fully specified; ends and bridges not checked; UniProt Q5SC59 182-202, looked up) [Ar2, antimicrobial peptide (21 AA) from coelomocytes of the polychaete lugworm Arenicola marina]
[6]; Ar2/LPN sample supernatants, Superdex-200, pH 7.4, diameter = 2 RH
  size of large complexes: ~ 15 nm
[6]; [19]
  nanodisc disruption: causes nanodisc fusion, accompanied by the release of MSP molecules
[6]; Superdex-200, 10 mM Tris-HCl, 0.1 M NaCl, listed as arenicin-2
  nanodisc disruption: disintegrates LPNs
[11]; equimolar concentrations (Ar2/LPN = 1 : 1) and higher
  LPN solution turbidity: opaque
[11]; small peptide concentrations added
  LPN solution turbidity: strongly opalescent
[12]
  relative hydrophobicity: most hydrophobic among the studied peptides
[13]
  interaction with POPC vesicles/liposomes: does not interact
[14]
  binding to DOPG liposomes: binds with high affinity
[15]; at high concentrations, ref [24]
  bilayer micellization: probably causes bilayer micellization
[15]; ref [18]
  interaction with membranes containing negatively charged lipids: interacts selectively with membranes containing negatively charged lipid molecules and creates in them oligomeric pores
